Assays:
Type in all cases: cell-based
[1] = target: T1, heteromeric KV7.2/KV7.3 channels (KCNQ2, KCNQ3) (Homo sapiens, UniProt O43525+O43526); assay: Automated patch-clamp (Sophion Qube 384) potency assay against KV7.2/KV7.3 channels; conditions: CHO-K1/Kv7.2/Kv7.3 cells; for EC50: EC50 from concentration-response of shift in Vhalf, 10 concentrations up to 30 μM, read-out: Kv7.2/7.3 EC50; for Kv7.2/7.3 ΔV1/2: maximal shift in the Vhalf from the top of the curve
T1 construct: expressed in transfected cells; host or cells: CHO-K1
Text: Assessment of In Vitro Potency Against KV7.2/KV7.3 Channels
An automated patch-clamp assay on the Sophion Qube 384 was developed for potency testing to identify small molecule activators of heteromeric KV7.2/KV7.3 channels (KCNQ2, Uniprot ID 043526; KCNQ3, Uniprot 043525).
The cell line used was a stably transfected CHO-K1 cell line with constitutive KV7.2/KV7.3 expression.
CHO-K1/Kv7.2/Kv7.3 cells were maintained in the following culture media: • DMEM/F-12 with GlutaMAX™ (Gibco 31331-028), • 10% Fetal clone 2 serum (Perbio Science SH30066.03), • 1 mg/ml Geneticin™ selective antibiotic (G418, Invitrogen 1013027), and • 5 μg/ml BlasticidinS HCl (Invivogen Ant-bl-5).
On the day of the experiment, cells were resuspended in serum free media, counted and diluted to a final concentration of 3.5×10^6 cells per ml of media.
Cells were then placed onto the Sophion Qube 384 and rested for a minimum of 1 hour.
The following solutions were used for recording: • extracellular solution (in mM): 145 NaCl, 4 KCl, 1 MgCl2, 2 CaCl2), 10 HEPES, 10 glucose, pH 7.4, 315-320 mOsm. • intracellular solution (in mM): 120 KCl, 5.74 CaCl2), 1.75 MgCl2, 10 EGTA, 10 HEPES, 5 Na2ATP, pH 7.2, adjusted to 315 mOsm with sucrose.
After establishing the whole-cell configuration, cells were held at −80 mV throughout the experiment. A current-voltage (I-V) protocol stepping from −100 to +20 mV for 1 second was applied to measure Kv7.2/Kv7.3 currents, each step was followed by a 200 ms pulse to 0 mV to measure the tail currents. From the I-V protocol a Boltzmann fit was applied to generate activation curves. Data were sampled at 25 kHz and filtered at 5 kHz (Bessel). Data were produced using multihole QChips. The I-V protocol was applied several times to establish the response in control conditions (typically 0.3% DMSO) and in the presence of the test compound.
Data were reviewed in Sophion Analyser version 6.5.2 (Sophion Bioscience) for recording quality and filters were applied to remove any failed wells. Leak subtraction was applied to all recordings. Data filters for multihole QChips were typically: seal resistance>4 MΩ, capacitance >20 pF, baseline VHalf between 0 to −40 mV, baseline holding current between −2 to 2 nA, baseline steady state current at 20 mV >4 nA unless otherwise stated.
(§1) Analysis of Data for Assessment of Potency
(§2) 10 concentrations of test compounds were applied to individual wells in quadruplicate to assess potency as a 1 in 3 dilution series from the maximal concentration of 30 μM. The average shift in the voltage for half activation (Vhalf) for each concentration was used to generate concentration-response curves fitted with a 4-parameter logistic model to estimate the EC50 from the point of inflection of the curve and the maximal shift in the Vhalf from the top of the curve.
(§3) The lower the EC50 value, the higher the potency of the analyzed compound. The selectivity criteria is assigned on the basis of the maximal shift in the Vhalf at 30 μM. […] In Table 3, ND means that selectivity was not determined.

[2] = target: T2, homomeric KV7.4 channel (KCNQ4) (Homo sapiens, UniProt P56696); assay: Automated patch-clamp (Qube) counter-screening assay against KV7.4 channel; conditions: CHO-K1 cells expressing KV7.4; class by maximal shift in the Vhalf at 30 μM
T2 construct: host or cells: CHO-K1
Text: Assessment of In Vitro Potency Against KV7.4 Channels
A counter-screening assay was also developed on the Qube against the homomeric KV7.4 channel (KCNQ4, Uniprot ID P56696). The cell line used was a stably transfected CHO-K1 with constitutive KV7.4 expression supplied by Charles River Laboratories.
CHO-K1 cells stably expressing KV7.4 channels were maintained in the following culture media: • Hams F-12 with GlutaMAX™ (Life Technologies 31765027), • 10% Fetal clone 2 serum (Perbio Science SH30066.03), and • 250 μg/ml Geneticin™ selective antibiotic (G418, Invitrogen 1013-027).
(§4) Cell maintenance, preparation, recording conditions and voltage protocols were all identical to those above.
as §1, §2, §3

[3] = target: T3, heteromeric KV7.3/KV7.5 channel (KCNQ3, KCNQ5) (Homo sapiens, UniProt O43525+Q9NR82); assay: Automated patch-clamp counter-screening against KV7.3/KV7.5 channel; conditions: HEK293 cells expressing Kv7.3/KV7.5; class by maximal shift in the Vhalf at 30 μM
T3 construct: host or cells: HEK293
Procedure: Assessment of in vitro potency against KV7.3/KV7.5 channels
Counter-screening was also carried out against the heteromeric KV7.3/KV7.5 channel (KCNQ3, Uniprot ID 043525; KCNQ5, Uniprot ID Q9NR82). The cell line used was a stably transfected HEK293 cell line with constitutive Kv7.3 expression and tetracycline inducible KV7.5 expression supplied by Charles River Laboratories.
Cells were maintained in the following culture media: • DMEM/F-12 with GlutaMAX™ (Life Technologies 31331-028), • 10% Tet Systems FCS (Clonetech 631106), • 500 μg/ml Geneticin™ selective antibiotic (G418, Invitrogen 1013-027), • 5 μg/ml Blasticidin S HCl (InvivoGen ant-bl-5), and • 100 μg/ml Zeocin (InvivoGen: ant-zn-5).
as §4, §1, §2, §3

| SMILES | EC50 [1] | Kv7.2/7.3 ΔV1/2 [1] | Kv7.4 selectivity criteria [2] | Kv7.3/7.5 selectivity criteria [3] |
| --- | --- | --- | --- | --- |
| O=C(NCc1ccnc(OCc2ccccc2)c1)NCC(O)C1(C(F)(F)F)CC1 (racemic) [Compound 5, (±)-1-((2-(Benzyloxy)pyridin-4-yl)methyl)-3-(2-hydroxy-2-(1-(trifluoromethyl)cyclopropyl)ethyl)urea] | 2.39 µM | 21.49 mV | A (Selective compounds showed Kv7.4 and/or Kv7.3/7.5 ΔV1/2 equal to or lower than 15 mV (letter A in table 3)) | A (Selective compounds showed Kv7.4 and/or Kv7.3/7.5 ΔV1/2 equal to or lower than 15 mV (letter A in table 3)) |
| O=C(NCc1ccnc(OCC(F)(F)F)c1)N[C@@H]1CCCc2c(F)cccc21 [Compound 216] | 1.4 µM | 49.32 mV | – | – |
| C#CCOc1cc(CNC(=O)N[C@@H]2CCCc3c(F)cccc32)ccn1 [Compound 217] | 1.76 µM | 29.44 mV | – | – |
| O=C(NCc1ccnc(OCC(F)(F)F)c1)NC1(C(F)(F)F)COC1 [Compound 218] | 8 µM | 21.41 mV | – | – |
| O=C(NCc1ccnc(OCC(F)(F)F)c1)NCC12CC(F)(C1)C2 [Compound 219] | 2.26 µM | 35.95 mV | – | – |
| O=C(NCc1ccnc(OCC(F)(F)F)c1)N[C@H]1COC[C@H]1c1ccc(F)cc1 [Compound 220] | 11.8 µM | 29.83 mV | – | – |
| C[C@@H](Oc1cc(CNC(=O)N[C@@H]2COc3ccccc3C2)ncn1)C(F)(F)F [Compound 221] | 3.2 µM | 35.15 mV | – | – |
| O=C(NCc1ccnc(OCC(F)(F)F)c1)N[C@@H]1COC[C@H]1Oc1cccc(F)c1 [Compound 222] | 4.16 µM | 28.1 mV | – | – |
| C[C@@H](Oc1cc(CNC(=O)N[C@@H](C2CC2)C(F)(F)F)ncn1)C(F)(F)F [Compound 223] | 7.4 µM | 41.12 mV | – | – |
| C[C@@H](Oc1cc(CNC(=O)N[C@H](C2CC2)C(F)(F)F)ncn1)C(F)(F)F [Compound 224] | 3.43 µM | 37.09 mV | – | – |
| C[C@@H](Oc1cc(CNC(=O)N[C@@H]2CCOc3cc(F)ccc32)ncn1)C(F)(F)F [Compound 225] | 6.41 µM | 42.13 mV | – | – |
| C[C@@H](NC(=O)NCc1ccnc(OCC(F)(F)F)c1)c1ccc2c(c1)OC(F)(F)O2 [Compound 226] | 1.83 µM | 22.4 mV | – | – |
| C[C@@H](NC(=O)NCc1ccnc(OCC(F)(F)F)c1)c1cccc2c1OC(F)(F)O2 [Compound 227] | 1.86 µM | 31.71 mV | – | – |
| O=C(NCc1ccnc(OCC(F)(F)F)c1)NCC12CC(C(F)(F)F)(C1)C2 [Compound 228] | 0.97 µM | 20.27 mV | – | – |
| O=C(NCc1ccnc(OCC(F)(F)F)c1)N[C@@H]1COC[C@H]1c1ccc(F)cc1 [Compound 229] | 12.7 µM | 76.14 mV | – | – |
| O=C(NCc1ccnc(OCC(F)(F)F)c1)N[C@H]1COC[C@@H]1c1ccc(F)cc1 [Compound 230] | 1.77 µM | 20.02 mV | – | – |
| O=C(NCc1ccnc(OCC(F)(F)F)c1)N[C@H]1CN(CC(F)(F)F)C[C@@H]1c1ccccc1 [Compound 231] | > 30 µM | 49.96 mV | – | – |
| O=C(NCc1ccnc(OCC(F)(F)F)c1)N[C@@H]1CN(CC(F)(F)F)C[C@H]1c1ccccc1 [Compound 232] | 1.43 µM | 23.95 mV | – | – |

| SMILES | EC50 [1] | Kv7.2/7.3 ΔV1/2 [1] | Kv7.4 selectivity criteria [2] | Kv7.3/7.5 selectivity criteria [3] |
| --- | --- | --- | --- | --- |
| COc1ccc([C@H](NC(=O)NCc2ccnc(OCC(F)(F)F)c2)C(F)(F)F)cc1 [Compound 233] | 2.52 µM | 28.00 mV | – | – |
| O=C(NCc1ccnc(OCC(F)(F)F)c1)N[C@@H]1COC[C@H]1Oc1ccc(F)cc1 [Compound 234] | 5.26 µM | 27.37 mV | – | – |
| O=C(NCc1ccnc(OCC(F)(F)F)c1)N[C@@H]1COC2(CC2)C1 [Compound 235] | 6.22 µM | 21.79 mV | – | – |
| O=C(NCc1ccnc(OCC(F)(F)F)c1)N[C@H]1C[C@H]2CC[C@@H]1O2 [Compound 236] | 11.9 µM | 31.52 mV | – | – |
| O=C(NCc1ccnc(OCC(F)(F)F)c1)N[C@@H]1C[C@@H]2CC[C@H]1O2 [Compound 237] | 11.7 µM | 29.76 mV | – | – |
| C[C@@H](NC(=O)NCc1ccnc(OCC(F)(F)F)c1)c1ccc(OC(F)(F)F)cc1 [Compound 238] | 2.91 µM | 24.31 mV | – | – |
| O=C(NCc1ccnc(OCC(F)(F)F)c1)NCC12CC(F)(CO1)C2 [Compound 239] | 5.1 µM | 20.11 mV | – | – |
| O=C(NCc1ccnc(OCC(F)(F)F)c1)N[C@H]1COC2(CC2)C1 [Compound 240] | 11.7 µM | 46.27 mV | – | – |
| COc1cccc(N2C[C@H](NC(=O)NCc3ccnc(OCC(F)(F)F)c3)C(F)(F)C2)c1 [Compound 241] | 3.32 µM | 36.71 mV | – | – |
| O=C(NCc1ccnc(OCC(F)(F)F)c1)N[C@@H]1CCO[C@H]1c1ccc(F)cc1 [Compound 242] | 2.98 µM | 34.51 mV | – | – |
| O=C(NCc1ccnc(OCC(F)(F)F)c1)N[C@@H]1COC[C@H]1Oc1ccccc1F [Compound 243] | 3.73 µM | 26.56 mV | – | – |
| C[C@@H](Oc1cc(CNC(=O)NCC23CC(F)(C2)C3)ncn1)C(F)(F)F [Compound 244] | 7.59 µM | 26.21 mV | – | – |
| O=C(NCc1ccnc(OCC(F)(F)F)c1)N[C@@H]1CCO[C@H](c2ccc(F)cc2)C1 [Compound 245] | 2.19 µM | 46.39 mV | – | – |
| Cn1ncc(C(F)(F)F)c1COc1cc(CNC(=O)NCCC2(C(F)(F)F)CC2)ccn1 [Compound 246] | 1.76 µM | 22.48 mV | – | – |
| Cc1cnc(COc2cc(CNC(=O)NCCC3(C(F)(F)F)CC3)ccn2)o1 [Compound 247] | 5.05 µM | 24.56 mV | – | – |
| O=C(NCc1ccnc(OCC(F)(F)F)c1)NCc1ccnc(OCC(F)(F)F)c1 [Compound 248] | 2.61 µM | 23.91 mV | – | – |
| O=C(NCc1ccnc(OCC(F)(F)F)c1)N[C@@H]1COc2cc(OC(F)(F)F)ccc21 [Compound 249] | 3.42 µM | 26.44 mV | – | – |
| O=C(NCCC1(C(F)(F)F)CC1)NCc1ccnc(OCC2CC2(F)F)c1 (centres unmarked) [Compound 250] | 2.58 µM | 21.04 mV | – | – |

Source: US20260207563A1, “UREA COMPOUNDS AS ACTIVATORS OF POTASSIUM CHANNELS KV7.2/7.3 USEFUL IN THE TREATMENT OF CNS AND PNS DISORDERS” (ANGELINI PHARMA S.P.A., priority 2022, published 2026)
